Test results as given in ChEMBL document CHEMBL1201862, “PubChem BioAssay data set” (2004).
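Values below derive from 48-hour exposures of cells grown in 96-well plates, with endpoints linearly interpolated between the two concentrations bracketing the appropriate inhibition level. GI50 marks 50% less growth.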 Active and inactive are the calls of the source. Rule as the data show it: active = GI50 up to about 1.1 µM and inactive = higher.

Assays:
Assay in all cases: inhibition of tumour cell growth, NCI panel, 48 h
RXF 393 = tested on: RXF 393
SF-295 = tested on: SF-295
MCF7 = tested on: MCF7
A498 = tested on: A498
PC-3 = tested on: PC-3
UO-31 = tested on: UO-31
OVCAR-3 = tested on: OVCAR-3
EKVX = tested on: EKVX
UACC-257 = tested on: UACC-257
SN12C = tested on: SN12C
HCC 2998 = tested on: HCC 2998
TK-10 = tested on: TK-10
MDA-N = tested on: MDA-N
786-0 = tested on: 786-0
HOP-62 = tested on: HOP-62
DU-145 = tested on: DU-145
SNB-19 = tested on: SNB-19
COLO 205 = tested on: COLO 205
OVCAR-5 = tested on: OVCAR-5
NCI/ADR-RES = tested on: NCI/ADR-RES
SNB-75 = tested on: SNB-75
SK-MEL-5 = tested on: SK-MEL-5
SK-OV-3 = tested on: SK-OV-3
MDA-MB-231 = tested on: MDA-MB-231
NCI-H460 = tested on: NCI-H460
M14 = tested on: M14
T47D = tested on: T47D
SW-620 = tested on: SW-620
SK-MEL-2 = tested on: SK-MEL-2
HCT-116 = tested on: HCT-116
Malme-3M = tested on: Malme-3M
SK-MEL-28 = tested on: SK-MEL-28
NCI-H226 = tested on: NCI-H226
UACC-62 = tested on: UACC-62
SF-268 = tested on: SF-268
OVCAR-4 = tested on: OVCAR-4
ACHN = tested on: ACHN
SR = tested on: SR
HT-29 = tested on: HT-29
K562 = tested on: K562
MDA-MB-435 = tested on: MDA-MB-435
HOP-92 = tested on: HOP-92
HL-60 = tested on: HL-60
KM12 = tested on: KM12
HCT-15 = tested on: HCT-15
OVCAR-8 = tested on: OVCAR-8
A549 = tested on: A549
NCI-H23 = tested on: NCI-H23
Hs-578T = tested on: Hs-578T
RPMI-8226 = tested on: RPMI-8226
MOLT-4 = tested on: MOLT-4
LOX IMVI = tested on: LOX IMVI
CAKI-1 = tested on: CAKI-1
U-251 = tested on: U-251
SF-539 = tested on: SF-539
CCRF-CEM = tested on: CCRF-CEM
IGROV-1 = tested on: IGROV-1
NCI-H522 = tested on: NCI-H522

Compound: NS(=O)(=O)c1ccc(/C=C/c2ccc(O)c(O)c2)cc1
- GI50 (RXF 393): 69.3 µM (inactive)
- GI50 (SF-295): 29.8 µM (inactive)
- GI50 (MCF7): 20.8 µM (inactive)
- GI50 (A498): 54.3 µM (inactive)
- GI50 (PC-3): 19.1 µM (inactive)
- GI50 (UO-31): 12.3 µM (inactive)
- GI50 (OVCAR-3): 31.6 µM (inactive)
- GI50 (EKVX): 21.2 µM (inactive)
- GI50 (UACC-257): 61.5 µM (inactive)
- GI50 (SN12C): 18.7 µM (inactive)
- GI50 (HCC 2998): 18.7 µM (inactive)
- GI50 (TK-10): 60.7 µM (inactive)
- GI50 (MDA-N): 18.3 µM (inactive)
- GI50 (786-0): 34.7 µM (inactive)
- GI50 (HOP-62): 47.2 µM (inactive)
- GI50 (DU-145): 68.7 µM (inactive)
- GI50 (SNB-19): 34.4 µM (inactive)
- GI50 (COLO 205): 21.2 µM (inactive)
- GI50 (OVCAR-5): 31.6 µM (inactive)
- GI50 (NCI/ADR-RES): 23.1 µM (inactive)
- GI50 (SNB-75): 20.4 µM (inactive)
- GI50 (SK-MEL-5): 10.8 µM (inactive)
- GI50 (SK-OV-3): 17.3 µM (inactive)
- GI50 (MDA-MB-231): 19.6 µM (inactive)
- GI50 (NCI-H460): 27.3 µM (inactive)
- GI50 (M14): 26.5 µM (inactive)
- GI50 (T47D): 14.5 µM (inactive)
- GI50 (SW-620): 22 µM (inactive)
- GI50 (SK-MEL-2): 22.5 µM (inactive)
- GI50 (HCT-116): 25.5 µM (inactive)
- GI50 (Malme-3M): 35.3 µM (inactive)
- GI50 (SK-MEL-28): 23.2 µM (inactive)

Compound: CCOc1cc(/C=N\N(C)C)cc(/C=N\N(C)C)c1O
- GI50 (NCI-H226): 38.3 µM (inactive)
- GI50 (UACC-62): 69 µM (inactive)
- GI50 (SF-295): 41.3 µM (inactive)
- GI50 (SF-268): 19.8 µM (inactive)
- GI50 (A498): 55.5 µM (inactive)
- GI50 (PC-3): 33.2 µM (inactive)
- GI50 (UO-31): 29.4 µM (inactive)
- GI50 (OVCAR-3): 31.7 µM (inactive)
- GI50 (EKVX): 71.6 µM (inactive)
- GI50 (OVCAR-4): > 100 µM (inactive)
- GI50 (UACC-257): 36 µM (inactive)
- GI50 (ACHN): 21.5 µM (inactive)
- GI50 (SR): 38 µM (inactive)
- GI50 (SN12C): 54 µM (inactive)
- GI50 (HCC 2998): 91.2 µM (inactive)
- GI50 (TK-10): 69.2 µM (inactive)
- GI50 (HT-29): 42.3 µM (inactive)
- GI50 (MDA-N): 32.8 µM (inactive)
- GI50 (786-0): 42.7 µM (inactive)
- GI50 (HOP-62): 50.8 µM (inactive)
- GI50 (K562): > 100 µM (inactive)
- GI50 (DU-145): > 100 µM (inactive)
- GI50 (MDA-MB-435): 32.5 µM (inactive)
- GI50 (HOP-92): 7.66 µM (inactive)
- GI50 (SNB-19): 48.9 µM (inactive)
- GI50 (COLO 205): 18.7 µM (inactive)
- GI50 (HL-60): 52.5 µM (inactive)
- GI50 (KM12): > 100 µM (inactive)
- GI50 (HCT-15): 35.2 µM
- GI50 (OVCAR-5): 48.2 µM (inactive)
- GI50 (OVCAR-8): 21.6 µM (inactive)
- GI50 (A549): > 100 µM (inactive)
- GI50 (NCI/ADR-RES): 35.8 µM (inactive)
- GI50 (SNB-75): 28.8 µM (inactive)
- GI50 (SK-MEL-5): 22.1 µM (inactive)
- GI50 (SK-OV-3): 29.4 µM (inactive)
- GI50 (MDA-MB-231): 43.1 µM (inactive)
- GI50 (NCI-H460): 30.1 µM (inactive)
- GI50 (NCI-H23): > 100 µM (inactive)
- GI50 (Hs-578T): 29.7 µM (inactive)
- GI50 (M14): 40.2 µM (inactive)
- GI50 (RPMI-8226): 31.6 µM (inactive)
- GI50 (T47D): 11.7 µM (inactive)
- GI50 (SW-620): 53.3 µM (inactive)
- GI50 (SK-MEL-2): 28.2 µM (inactive)
- GI50 (MOLT-4): 61 µM (inactive)
- GI50 (HCT-116): 90.6 µM (inactive)
- GI50 (LOX IMVI): 30.5 µM (inactive)
- GI50 (Malme-3M): 32.4 µM (inactive)
- GI50 (CAKI-1): 18.3 µM (inactive)
- GI50 (SK-MEL-28): 35.4 µM (inactive)
- GI50 (U-251): 33.7 µM (inactive)
- GI50 (SF-539): 20.6 µM (inactive)
- GI50 (CCRF-CEM): 44.7 µM (inactive)

Compound: O=C(O)CCC(=O)c1ccc(Cl)cc1
- GI50 (NCI-H226): > 100 µM (inactive)
- GI50 (RXF 393): > 100 µM (inactive)
- GI50 (SF-295): > 100 µM (inactive)
- GI50 (UO-31): > 100 µM (inactive)
- GI50 (OVCAR-3): > 100 µM (inactive)
- GI50 (EKVX): > 100 µM (inactive)
- GI50 (OVCAR-4): > 100 µM (inactive)
- GI50 (SR): > 100 µM (inactive)
- GI50 (SN12C): > 100 µM (inactive)
- GI50 (HT-29): > 100 µM (inactive)
- GI50 (MDA-N): > 100 µM (inactive)
- GI50 (786-0): > 100 µM (inactive)
- GI50 (HOP-62): > 100 µM (inactive)
- GI50 (K562): > 100 µM (inactive)
- GI50 (DU-145): > 100 µM (inactive)
- GI50 (MDA-MB-435): > 100 µM (inactive)
- GI50 (HOP-92): > 100 µM (inactive)
- GI50 (SNB-19): > 100 µM (inactive)
- GI50 (COLO 205): > 100 µM (inactive)
- GI50 (HL-60): > 100 µM (inactive)
- GI50 (KM12): > 100 µM (inactive)
- GI50 (OVCAR-5): > 100 µM (inactive)
- GI50 (OVCAR-8): > 100 µM (inactive)
- GI50 (A549): > 100 µM (inactive)
- GI50 (SNB-75): > 100 µM (inactive)
- GI50 (SK-MEL-5): > 100 µM (inactive)
- GI50 (SK-OV-3): > 100 µM (inactive)
- GI50 (M14): > 100 µM (inactive)
- GI50 (RPMI-8226): > 100 µM (inactive)
- GI50 (T47D): > 100 µM (inactive)
- GI50 (SW-620): > 100 µM (inactive)
- GI50 (MOLT-4): > 100 µM (inactive)
- GI50 (IGROV-1): > 100 µM (inactive)
- GI50 (HCT-116): > 100 µM (inactive)
- GI50 (LOX IMVI): > 100 µM (inactive)
- GI50 (CAKI-1): > 100 µM (inactive)
- GI50 (SK-MEL-28): > 100 µM (inactive)
- GI50 (SF-539): > 100 µM (inactive)
- GI50 (CCRF-CEM): > 100 µM (inactive)

Compound: C1=C(N2CCOCC2)/C(=C2\SC(=N/c3ccccc3)/C(=N\c3ccccc3)N2c2ccccc2)CC1
- GI50 (UACC-62): 18.7 µM (inactive)
- GI50 (SF-295): 49.2 µM (inactive)
- GI50 (A498): 94.4 µM (inactive)
- GI50 (PC-3): > 100 µM (inactive)
- GI50 (OVCAR-3): 52.4 µM (inactive)
- GI50 (SR): 67.5 µM (inactive)
- GI50 (SN12C): > 100 µM (inactive)
- GI50 (HT-29): > 100 µM (inactive)
- GI50 (MDA-N): > 100 µM (inactive)
- GI50 (HOP-62): 28.9 µM (inactive)
- GI50 (K562): > 100 µM (inactive)
- GI50 (NCI-H522): 29 µM (inactive)
- GI50 (DU-145): > 100 µM (inactive)
- GI50 (MDA-MB-435): > 100 µM (inactive)
- GI50 (HOP-92): 34.8 µM (inactive)
- GI50 (COLO 205): > 100 µM (inactive)
- GI50 (HL-60): > 10 µM (inactive)
- GI50 (KM12): > 100 µM (inactive)
- GI50 (HCT-15): > 100 µM
- GI50 (OVCAR-8): 62.5 µM (inactive)
- GI50 (NCI/ADR-RES): > 100 µM (inactive)
- GI50 (SNB-75): 23.1 µM (inactive)
- GI50 (SK-MEL-5): > 100 µM (inactive)
- GI50 (SK-OV-3): 34.1 µM (inactive)
- GI50 (MDA-MB-231): 61.5 µM (inactive)
- GI50 (NCI-H460): > 100 µM (inactive)
- GI50 (NCI-H23): > 100 µM (inactive)
- GI50 (Hs-578T): 26.8 µM (inactive)
- GI50 (M14): 38.2 µM (inactive)
- GI50 (RPMI-8226): > 100 µM (inactive)
- GI50 (T47D): > 100 µM (inactive)
- GI50 (SK-MEL-2): 89.3 µM (inactive)
- GI50 (MOLT-4): 20.9 µM (inactive)
- GI50 (IGROV-1): > 100 µM (inactive)
- GI50 (HCT-116): > 100 µM (inactive)
- GI50 (Malme-3M): > 100 µM (inactive)
- GI50 (CAKI-1): 51.8 µM (inactive)
- GI50 (SK-MEL-28): 75.2 µM (inactive)
- GI50 (U-251): 68.4 µM (inactive)
- GI50 (CCRF-CEM): 19.7 µM (inactive)
